Article PMC9898036, “VIP152 is a selective CDK9 inhibitor with pre-clinical in vitro and in vivo efficacy in chronic lymphocytic leukemia” (Leukemia, 2022)
Where two headings read alike, the source gives them in different places.

Tests used:
[1] = test system: HG-3 and MEC-1 cell lines; test: Western blot of treated CLL cell lines; format: cell-based, human
[2] = test system: C57BL/6 J mice engrafted with Eµ-MTCP1 splenocytes; test: Eµ-MTCP1 adoptive transfer murine CLL model; format: in vivo, mouse; details: 12.5mg/kg tail vein injection, every week
Protocol: All animal studies were carried out under protocols approved by The Ohio State University Institutional Animal Care and Use Committee (IACUC). Previously, 1 × 10^6 splenocytes from Eµ-MTCP1 mice, which recently were described to mimic human CLL, were resuspended in PBS and injected via tail vein into male C57BL/6 J from The Jackson Laboratory. Mice were monitored for development of peripheral disease by flow cytometry, measuring the percentage of CD5^+/CD19^+ cells in peripheral blood. Complete in vivo methods may be found in the supplementary material.
In vitro systems generally lack the full microenvironment that can lead to tumor cell resistance and survival. Next, we sought to assess the in vivo efficacy of VIP152 to better evaluate its potential clinical utility in patients with CLL. To accomplish this we used a novel transgenic model of CLL (Eµ-MTCP1 model) developed recently by our group that is characterized by CD5^+/CD19^+ and B220^Dim expansion in the blood. Splenocytes from diseased Eµ-MTCP1 mice were serially engrafted via tail vein injection and monitored for leukemia via weekly flow cytometry (Fig. 5A). Mice were randomized to vehicle versus VIP152 at the time blood disease was evident and treated every week until endpoint. […] Mice in the VIP152 treatment group had improved overall survival compared with vehicle with a median survival of 46 days vs 32 days respectively (Fig. 5D – p < 0.005). Following enrollment two mice had reduction in disease that was sustained below 10% for the duration of study and these mice were censored after 100 days upon which treatment was ceased. Two months following treatment cessation these mice succumbed to likely illness with evident splenomegaly. […]
Transcriptase. cDNA was immediately taken for qPCR using TaqMan Fast Advanced Master Mix using […]
Upon reaching 80% disease, these mice were euthanized and spleens were harvested. Splenocytes from a single donor were then used for the studies described here. 1 x 10^6 splenocytes were again injected via tail vein into male C57BL/6J mice and monitored via flow cytometry as previously described for development of disease as defined by ≥10% CD45+/CD5+/CD19+32. Upon reaching 10% disease, mice were randomly enrolled into one of two treatment arms: tail vein injection of 12.5mg/kg VIP152 dissolved in (30/10/60 v/v/v PEG400/EtOH/0.5% Tween-80 in water) or vehicle control.
Flow Cytometry analysis of blood […]
Anti-Mouse CD45R/B220 – cat. […] Data were analyzed using Kaluza Analysis Software (Beckman-Coulter v2.1).
Mass spectra from all samples (N = 12) were converted to mzML with ProteoWizard and OpenMS (v 2.5.0)30,31. Features from converted files were detected with Biosaur and searched on the OpenMS platform with […]

Adenosine A3 = Adenosine A3 (Homo sapiens, UniProt P0DMS8); test: Eurofins Diversity Panel; format: binding; details: hum, Conc. 10 μM
Estrogen Erα = Estrogen Erα (Homo sapiens, UniProt P03372); test: Eurofins Diversity Panel; format: binding; details: hum, Conc. 10 μM
RIPK1 = RIPK1 (Homo sapiens, UniProt Q13546); test: KINOMEscan: RIPK1; format: binding; details: 100 nM, read-out: Percent Control
Chain of RIPK1 (Q13546 whole entry): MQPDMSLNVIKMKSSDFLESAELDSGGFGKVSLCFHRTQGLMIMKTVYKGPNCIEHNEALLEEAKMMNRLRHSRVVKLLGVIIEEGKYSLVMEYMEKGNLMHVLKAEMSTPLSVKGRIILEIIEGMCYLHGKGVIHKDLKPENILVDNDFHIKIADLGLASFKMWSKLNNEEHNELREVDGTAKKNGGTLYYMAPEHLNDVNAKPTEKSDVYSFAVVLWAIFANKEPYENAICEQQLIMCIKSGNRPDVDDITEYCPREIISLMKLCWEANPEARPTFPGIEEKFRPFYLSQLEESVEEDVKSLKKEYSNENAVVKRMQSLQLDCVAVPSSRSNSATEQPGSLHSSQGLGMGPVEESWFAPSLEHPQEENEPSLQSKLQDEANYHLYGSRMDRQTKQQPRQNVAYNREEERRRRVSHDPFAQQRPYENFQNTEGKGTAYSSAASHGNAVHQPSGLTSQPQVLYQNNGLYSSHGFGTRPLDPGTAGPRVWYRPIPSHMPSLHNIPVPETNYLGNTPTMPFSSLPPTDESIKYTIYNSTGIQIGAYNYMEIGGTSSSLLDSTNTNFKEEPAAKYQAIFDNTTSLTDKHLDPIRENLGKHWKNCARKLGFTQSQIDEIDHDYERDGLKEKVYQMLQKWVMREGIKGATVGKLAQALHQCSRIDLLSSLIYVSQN

SGK2 = SGK2 (Homo sapiens, UniProt Q9HBY8); test: KINOMEscan: SGK2; format: binding; details: 100 nM, read-out: Percent Control
Chain of SGK2 (Q9HBY8 whole entry): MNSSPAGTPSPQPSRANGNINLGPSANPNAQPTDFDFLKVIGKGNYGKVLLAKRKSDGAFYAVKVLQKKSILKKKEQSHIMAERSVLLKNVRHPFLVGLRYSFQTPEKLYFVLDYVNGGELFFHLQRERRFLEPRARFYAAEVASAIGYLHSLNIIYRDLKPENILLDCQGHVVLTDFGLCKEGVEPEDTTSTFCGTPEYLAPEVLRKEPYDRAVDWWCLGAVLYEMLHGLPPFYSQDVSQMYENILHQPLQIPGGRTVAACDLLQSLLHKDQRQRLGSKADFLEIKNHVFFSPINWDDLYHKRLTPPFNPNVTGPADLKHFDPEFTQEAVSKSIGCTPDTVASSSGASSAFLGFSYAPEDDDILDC

SYK = SYK (Homo sapiens, UniProt P43405); test: KINOMEscan: SYK; format: binding; details: 100 nM, read-out: Percent Control
TAOK2 = TAOK2 (Homo sapiens, UniProt Q9UL54); test: KINOMEscan: TAOK2; format: binding; details: 100 nM, read-out: Percent Control
TGFBR2 = TGFBR2 (Homo sapiens, UniProt P37173); test: KINOMEscan: TGFBR2; format: binding; details: 100 nM, read-out: Percent Control
TLK1 = TLK1 (Homo sapiens, UniProt Q9UKI8); test: KINOMEscan: TLK1; format: binding; details: 100 nM, read-out: Percent Control
Chain of TLK1 (Q9UKI8 whole entry): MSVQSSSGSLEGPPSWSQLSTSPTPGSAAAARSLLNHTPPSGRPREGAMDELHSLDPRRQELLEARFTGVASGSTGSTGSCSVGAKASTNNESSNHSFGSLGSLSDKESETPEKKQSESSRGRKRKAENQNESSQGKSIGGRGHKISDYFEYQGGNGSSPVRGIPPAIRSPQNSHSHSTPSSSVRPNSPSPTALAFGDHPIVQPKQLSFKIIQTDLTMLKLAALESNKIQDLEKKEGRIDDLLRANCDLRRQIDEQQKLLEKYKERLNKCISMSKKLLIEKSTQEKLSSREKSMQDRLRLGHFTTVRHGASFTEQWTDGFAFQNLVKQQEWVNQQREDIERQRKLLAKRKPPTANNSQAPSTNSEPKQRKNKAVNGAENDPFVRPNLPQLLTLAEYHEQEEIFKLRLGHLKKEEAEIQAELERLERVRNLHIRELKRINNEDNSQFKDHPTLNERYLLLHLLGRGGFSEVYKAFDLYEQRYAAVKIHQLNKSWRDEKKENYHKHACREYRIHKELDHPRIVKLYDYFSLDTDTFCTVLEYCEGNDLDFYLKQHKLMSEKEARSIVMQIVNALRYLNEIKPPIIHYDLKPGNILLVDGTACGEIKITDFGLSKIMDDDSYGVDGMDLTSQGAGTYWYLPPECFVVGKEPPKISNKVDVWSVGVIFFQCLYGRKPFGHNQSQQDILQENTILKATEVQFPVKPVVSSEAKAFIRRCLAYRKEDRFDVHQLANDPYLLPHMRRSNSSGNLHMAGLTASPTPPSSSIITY

TNK2 = TNK2 (Homo sapiens, UniProt Q07912); test: KINOMEscan: TNK2; format: binding; details: 100 nM, read-out: Percent Control
TTK = TTK (Homo sapiens, UniProt P33981); test: KINOMEscan: TTK; format: binding; details: 100 nM, read-out: Percent Control
AURKA = AURKA (Homo sapiens, UniProt O14965); test: KINOMEscan: AURKA; format: binding; details: 1000 nM, read-out: Percent Control
BMPR1B = BMPR1B (Homo sapiens, UniProt O00238); test: KINOMEscan: BMPR1B; format: binding; details: 1000 nM, read-out: Percent Control
BRSK1 = BRSK1 (Homo sapiens, UniProt Q8TDC3); test: KINOMEscan: BRSK1; format: binding; details: 1000 nM, read-out: Percent Control
CDKL3 = CDKL3 (Homo sapiens, UniProt Q8IVW4); test: KINOMEscan: CDKL3; format: binding; details: 1000 nM, read-out: Percent Control
DCAMKL3 = DCAMKL3 (Homo sapiens, UniProt Q9C098); test: KINOMEscan: DCAMKL3; format: binding; details: 1000 nM, read-out: Percent Control
Chain of DCAMKL3 (Q9C098 whole entry): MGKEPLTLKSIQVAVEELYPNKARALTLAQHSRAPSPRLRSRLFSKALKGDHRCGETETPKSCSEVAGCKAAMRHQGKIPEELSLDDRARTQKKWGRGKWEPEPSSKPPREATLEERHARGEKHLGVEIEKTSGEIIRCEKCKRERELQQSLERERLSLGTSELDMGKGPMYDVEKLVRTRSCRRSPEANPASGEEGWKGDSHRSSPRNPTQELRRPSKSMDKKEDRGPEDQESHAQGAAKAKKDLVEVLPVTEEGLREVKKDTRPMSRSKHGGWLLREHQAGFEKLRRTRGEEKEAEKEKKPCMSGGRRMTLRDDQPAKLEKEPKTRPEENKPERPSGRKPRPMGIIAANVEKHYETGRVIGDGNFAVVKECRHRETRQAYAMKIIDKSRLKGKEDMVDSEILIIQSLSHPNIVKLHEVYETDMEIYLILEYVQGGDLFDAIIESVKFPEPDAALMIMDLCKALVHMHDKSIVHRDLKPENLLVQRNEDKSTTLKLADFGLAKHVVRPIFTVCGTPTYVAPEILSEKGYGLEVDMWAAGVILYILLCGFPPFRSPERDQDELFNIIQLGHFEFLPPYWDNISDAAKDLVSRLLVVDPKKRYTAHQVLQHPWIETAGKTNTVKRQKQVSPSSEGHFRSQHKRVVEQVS

EPHB4 = EPHB4 (Homo sapiens, UniProt P54760); test: KINOMEscan: EPHB4; format: binding; details: 1000 nM, read-out: Percent Control
Chain of EPHB4 (P54760 16-987): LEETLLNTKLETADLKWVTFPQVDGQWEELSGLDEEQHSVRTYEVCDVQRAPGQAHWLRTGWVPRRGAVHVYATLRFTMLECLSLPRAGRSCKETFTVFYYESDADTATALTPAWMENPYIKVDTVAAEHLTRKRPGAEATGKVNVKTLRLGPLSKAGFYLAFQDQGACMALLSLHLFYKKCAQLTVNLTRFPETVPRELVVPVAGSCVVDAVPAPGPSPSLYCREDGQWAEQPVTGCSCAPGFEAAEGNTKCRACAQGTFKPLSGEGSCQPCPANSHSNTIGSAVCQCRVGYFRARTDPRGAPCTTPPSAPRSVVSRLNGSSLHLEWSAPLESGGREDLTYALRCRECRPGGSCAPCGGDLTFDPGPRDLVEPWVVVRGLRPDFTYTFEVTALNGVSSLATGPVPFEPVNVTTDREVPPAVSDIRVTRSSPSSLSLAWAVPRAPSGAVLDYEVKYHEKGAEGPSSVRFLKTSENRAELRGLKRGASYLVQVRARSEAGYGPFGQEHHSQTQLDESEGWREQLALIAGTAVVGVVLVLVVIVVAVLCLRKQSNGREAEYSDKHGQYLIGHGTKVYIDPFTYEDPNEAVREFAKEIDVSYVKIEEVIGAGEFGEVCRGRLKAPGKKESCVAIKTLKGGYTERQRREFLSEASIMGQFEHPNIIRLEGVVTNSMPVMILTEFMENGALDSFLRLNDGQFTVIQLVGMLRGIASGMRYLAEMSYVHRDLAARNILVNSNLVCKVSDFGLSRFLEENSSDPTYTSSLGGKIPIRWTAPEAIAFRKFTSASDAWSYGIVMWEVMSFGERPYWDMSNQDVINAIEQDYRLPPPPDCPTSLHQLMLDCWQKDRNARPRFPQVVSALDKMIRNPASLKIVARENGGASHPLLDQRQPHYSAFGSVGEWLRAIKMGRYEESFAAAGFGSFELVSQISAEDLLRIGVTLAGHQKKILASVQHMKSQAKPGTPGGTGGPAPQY

IRAK3 = IRAK3 (Homo sapiens, UniProt Q9Y616); test: KINOMEscan: IRAK3; format: binding; details: 1000 nM, read-out: Percent Control
Chain of IRAK3 (Q9Y616 whole entry): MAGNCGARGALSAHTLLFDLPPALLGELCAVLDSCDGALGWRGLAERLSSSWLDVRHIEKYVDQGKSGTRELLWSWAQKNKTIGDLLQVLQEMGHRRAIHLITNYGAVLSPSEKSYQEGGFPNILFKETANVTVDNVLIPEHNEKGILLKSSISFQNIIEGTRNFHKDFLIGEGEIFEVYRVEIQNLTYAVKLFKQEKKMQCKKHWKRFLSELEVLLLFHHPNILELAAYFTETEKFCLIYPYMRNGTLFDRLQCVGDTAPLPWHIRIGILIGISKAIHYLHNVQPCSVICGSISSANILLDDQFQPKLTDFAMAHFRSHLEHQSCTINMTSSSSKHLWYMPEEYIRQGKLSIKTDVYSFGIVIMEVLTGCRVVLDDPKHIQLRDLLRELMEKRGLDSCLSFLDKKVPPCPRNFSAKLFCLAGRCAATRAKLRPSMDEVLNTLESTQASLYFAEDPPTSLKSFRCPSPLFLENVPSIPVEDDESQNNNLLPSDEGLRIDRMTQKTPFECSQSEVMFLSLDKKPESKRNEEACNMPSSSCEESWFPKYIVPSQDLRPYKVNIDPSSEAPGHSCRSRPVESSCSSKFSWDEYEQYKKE

JNK2 = JNK2 (Homo sapiens, UniProt P45984); test: KINOMEscan: JNK2; format: binding; details: 1000 nM, read-out: Percent Control
Chain of JNK2 (P45984 whole entry): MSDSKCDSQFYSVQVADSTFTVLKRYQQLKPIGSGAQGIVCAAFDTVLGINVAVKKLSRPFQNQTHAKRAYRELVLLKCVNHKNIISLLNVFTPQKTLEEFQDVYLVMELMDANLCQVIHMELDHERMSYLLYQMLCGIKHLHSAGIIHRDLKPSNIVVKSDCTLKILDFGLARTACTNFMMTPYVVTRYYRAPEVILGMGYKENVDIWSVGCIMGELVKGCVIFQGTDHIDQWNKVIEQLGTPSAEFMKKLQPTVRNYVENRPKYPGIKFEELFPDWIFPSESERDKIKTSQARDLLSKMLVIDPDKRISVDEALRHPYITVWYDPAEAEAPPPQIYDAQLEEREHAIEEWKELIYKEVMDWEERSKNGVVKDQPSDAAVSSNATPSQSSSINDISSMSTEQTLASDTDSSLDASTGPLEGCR

JNK3 = JNK3 (Homo sapiens, UniProt P53779); test: KINOMEscan: JNK3; format: binding; details: 1000 nM, read-out: Percent Control
Chain of JNK3 (P53779 whole entry): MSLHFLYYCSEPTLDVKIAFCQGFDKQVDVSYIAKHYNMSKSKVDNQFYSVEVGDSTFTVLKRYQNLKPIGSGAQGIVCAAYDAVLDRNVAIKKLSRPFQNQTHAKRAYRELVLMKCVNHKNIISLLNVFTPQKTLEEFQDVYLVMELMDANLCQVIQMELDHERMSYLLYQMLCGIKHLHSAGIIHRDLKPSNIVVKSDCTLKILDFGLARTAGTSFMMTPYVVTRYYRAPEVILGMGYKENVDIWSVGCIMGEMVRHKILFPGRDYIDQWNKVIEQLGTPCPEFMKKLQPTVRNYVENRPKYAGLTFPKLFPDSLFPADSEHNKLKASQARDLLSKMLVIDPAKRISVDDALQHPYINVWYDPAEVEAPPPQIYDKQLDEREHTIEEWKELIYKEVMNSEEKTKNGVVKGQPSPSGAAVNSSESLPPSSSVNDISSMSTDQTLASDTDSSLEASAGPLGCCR

[3] = set-up: method as in PMID 35046056; details: human, cited from earlier work

## COc1cc(F)ccc1-c1cc(Nc2cc(CS(C)(=N)=O)ccn2)ncc1F (stereo not shown) [VIP152]
[1]; 0.1 µM, 8 h
  MCL1 protein levels: decreased
  Phosphorylation of serine 5 (marker of CDK7 activity): not diminished
  glycogen synthase phosphorylation at serine 641 (marker of GSK3α/β activity): did not observe a decrease
  phospho-serine 2 (pS2) of RNA Polymerase II: decrease
[1]; 1 µM, across 24 h
  MCL1: decreased
  c-MYC: decreased
  pS2: decreased
  pS5: minimal change
[1]; beginning at six hours
  PARP cleavage (induction of apoptosis): detect PARP cleavage
[2]
  weight loss: did not observe any weight loss
[2]; vehicle 32 days
  median survival: 46 days
[2]; vs vehicle
  CD5+/CD19+ disease burden in peripheral blood: statistically significantly lower
  spleen size and spleen disease burden at endpoint: did not have significantly smaller spleens nor significant decrease in spleen disease burden
Adenosine A3
  inhibition at 10 µM: 43%
Estrogen Erα
  inhibition at 10 µM: 6%
RIPK1
  remaining binding at 0.1 µM: 100%
SGK2
  remaining binding at 0.1 µM: 100%
SYK
  remaining binding at 0.1 µM: 100%
TAOK2
  remaining binding at 0.1 µM: 92%
TGFBR2
  remaining binding at 0.1 µM: 100%
TLK1
  remaining binding at 0.1 µM: 98%
TNK2
  remaining binding at 0.1 µM: 100%
TTK
  remaining binding at 0.1 µM: 95%
AURKA
  remaining binding at 1 µM: 41%
BMPR1B
  remaining binding at 1 µM: 46%
BRSK1
  remaining binding at 1 µM: 83%
CDKL3
  remaining binding at 1 µM: 53%
DCAMKL3
  remaining binding at 1 µM: 100%
EPHB4
  remaining binding at 1 µM: 100%
IRAK3
  remaining binding at 1 µM: 52%
JNK2
  remaining binding at 1 µM: 83%
JNK3
  remaining binding at 1 µM: 82%
[3]
  Cmax: 836 ng/mL
[3]; read-out: Cmax, corresponding concentration
  Cmax: 2000 nM
